Measurements as given in US20240182495A1, “ANTIBACTERIAL COMPOUNDS” (JANSSEN SCIENCES IRELAND UNLIMITED COMPANY, priority 2021, published 2024).
Marks after values point to notes of the source that are not given here.

Test system: Mycobacterium tuberculosis strain (EH4.0, GFP-expressing; Test 2: H37Rv)
Experiment: MIC determination against M. tuberculosis, Test 1 (and/or Test 2)
Type: cell-based
Settings: 7 days incubation, fluorescence; for IC50: Mycobacterium tuberculosis, H37RV, 168 h

| Compound | IC50 | pIC50 |
| --- | --- | --- |
| CCc1nc2ccc(Cl)cn2c1C(=O)NCc1ccc(-c2nc3n(n2)CCN(S(=O)(=O)C(F)(F)F)C3)c(F)c1 [Compound 3] | 0.0617 µM | – |
| CCc1nc2ncc(Cl)cn2c1C(=O)NCc1ccc(-c2nc3n(n2)CCN(S(=O)(=O)C(F)(F)F)C3)c(F)c1 [Compound 4] | 0.0126 µM | – |
| O=C(NCc1ccc(-c2nc3n(n2)CCN(S(=O)(=O)C(F)(F)F)C3)c(F)c1)c1c(C(F)F)nc2ccc(Cl)cn12 [Compound 5] | 0.229 µM | – |
| CCc1nc2nc(C)c(Cl)cn2c1C(=O)NCc1ccc(-c2nc3n(n2)CCN(S(=O)(=O)C(F)(F)F)C3)cc1 [Compound 8] | – | 7.58 |
| CCc1nc2cc(C)c(Cl)cn2c1C(=O)NCc1ccc(-c2nc3n(n2)CCN(S(=O)(=O)C(F)(F)F)C3)c(F)c1 [Compound 9] | 0.363 µM | – |
| CCc1nc2c(Cl)c(OC)ccn2c1C(=O)NCc1ccc(-c2nc3n(n2)CCN(S(=O)(=O)C(F)(F)F)C3)c(F)c1 [Compound 11] | 0.447 µM | – |
| CCc1nc2nc(NC)c(Cl)cn2c1C(=O)NCc1ccc(-c2nc3n(n2)CCN(S(=O)(=O)C(F)(F)F)C3)c(F)c1 [Compound 13] | – | <6.301 |
| CCc1nc2cc(OC)c(Cl)cn2c1C(=O)NCc1cnc(-c2nc3n(n2)CCN(S(=O)(=O)C(F)(F)F)C3)c(F)c1 [Compound 16] | 0.501 µM | – |
| CCc1nc2ncc(F)cn2c1C(=O)NCc1ccc(-c2nc3n(n2)CCN(S(=O)(=O)C(F)(F)F)C3)c(F)c1 [Compound 17] | 0.195 µM | – |
| CCc1nc2nc3c(cn2c1C(=O)NCc1ccc(-c2nc4n(n2)CCN(S(=O)(=O)C(F)(F)F)C4)c(F)c1)CCOC3 [Compound 18] | 0.151 µM | – |
| CCc1nc2cc(Cl)c(C)cn2c1C(=O)NCc1cnc(-c2nc3n(n2)CCN(S(=O)(=O)C(F)(F)F)C3)c(F)c1 [Compound 19] | – | 6.48 |
| CCc1nc2cc(C)c(Cl)cn2c1C(=O)NCc1cnc(-c2nc3n(n2)CCN(S(=O)(=O)C(F)(F)F)C3)c(F)c1 [Compound 20] | 0.501 µM | – |
| CCc1nc2c(F)cc(Cl)cn2c1C(=O)NCc1ccc(-c2nc3n(n2)CCN(S(=O)(=O)C(F)(F)F)C3)cc1 [Compound 21] | 0.0407 µM | – |
| CCc1nc2ccc(F)cn2c1C(=O)NCc1ccc(-c2nc3n(n2)CCN(S(=O)(=O)C(F)(F)F)C3)cc1 [Compound 22] | 0.0447 µM | – |
| CCc1nc2cc(C)c(C)cn2c1C(=O)NCc1ccc(-c2nc3n(n2)CCN(S(=O)(=O)C(F)(F)F)C3)cc1 [Compound 23] | 0.0324 µM | – |
| CCc1nc2cc(Cl)c(C)cn2c1C(=O)NCc1ccc(-c2nc3n(n2)CCN(S(=O)(=O)C(F)(F)F)C3)cc1 [Compound 25] | 0.182 µM | – |
| CCc1nc2ncc(C(C)C)cn2c1C(=O)NCc1ccc(-c2nc3n(n2)CCN(S(=O)(=O)C(F)(F)F)C3)cc1 [Compound 26] | 0.245 µM | – |
| CCc1nc2ccc(C3CC3)cn2c1C(=O)NCc1ccc(-c2nc3n(n2)CCN(S(=O)(=O)C(F)(F)F)C3)cc1 [Compound 27] | 0.138 µM | – |
| CCc1nc2ncc(C3CC3)cn2c1C(=O)NCc1ccc(-c2nc3n(n2)CCN(S(=O)(=O)C(F)(F)F)C3)cc1 [Compound 28] | 0.0537 µM | – |
| Cc1cnc2nc(C)c(C(=O)NCc3ccc(-c4nc5n(n4)CCN(S(=O)(=O)C(F)(F)F)C5)cc3)n2c1 [Compound 29] | 0.0219 µM | – |
| Cc1ccc2nc(C3CC3)c(C(=O)NCc3ccc(-c4nc5n(n4)CCN(S(=O)(=O)C(F)(F)F)C5)cc3)n2c1 [Compound 30] | 0.0417 µM | – |
| CCc1nc2n(c1C(=O)NCc1ccc(-c3nc4n(n3)CCN(S(=O)(=O)C(F)(F)F)C4)cc1)CCCC2 [Compound 31] | 0.024 µM | – |

| Compound | IC50 | pIC50 |
| --- | --- | --- |
| Cc1cn2c(C(=O)NCc3ccc(-c4nc5n(n4)CCN(S(=O)(=O)C(F)(F)F)C5)cc3)c(C)nc2s1 [Compound 32] | 0.0603 µM | – |
| CCc1nc2nc(C)c(C)cn2c1C(=O)NCc1ccc(-c2nc3n(n2)CCN(S(=O)(=O)C(F)(F)F)C3)cc1 [Compound 33] | 0.0129 µM | – |
| Cc1ccc2nc(C)c(C(=O)NCc3ccc(-c4nc5n(n4)CCN(S(=O)(=O)C(F)(F)F)C5)cc3)n2c1 [Compound 34] | 0.0126 µM | – |
| CCc1nc2ccc(C(C)C)cn2c1C(=O)NCc1ccc(-c2nc3n(n2)CCN(S(=O)(=O)C(F)(F)F)C3)cc1 [Compound 35] | > 0.5 µM | – |
| CCc1nc2sc(C)cn2c1C(=O)NCc1ccc(-c2nc3n(n2)CCN(S(=O)(=O)C(F)(F)F)C3)cc1 [Compound 36] | 0.0162 µM | – |
| CCc1nc2ncc(C)cn2c1C(=O)NCc1ccc(-c2nc3n(n2)CCNC3)cc1 [Compound 37] | 0.457 µM | – |
| Cc1nc2sc(Cl)cn2c1C(=O)NCc1ccc(-c2nc3n(n2)CCN(S(=O)(=O)C(F)(F)F)C3)cc1 [Compound 38] | 0.282 µM | – |
| CCc1nc2sc(Cl)cn2c1C(=O)NCc1ccc(-c2nc3n(n2)CCN(S(=O)(=O)C(F)(F)F)C3)cc1 [Compound 39] | 0.123 µM | – |
| CCc1nc2ncc(C)cn2c1C(=O)NCc1ccc(-c2nc3n(n2)CCN(C(C)=O)C3)cc1 [Compound 40] | 0.501 µM | – |
| CCc1nc2ncc(C)cn2c1C(=O)NCc1ccc(-c2nc3n(n2)CCN(S(=O)(=O)N(C)C)C3)cc1 [Compound 41] | 0.0457 µM | – |
| CCc1nc2ncc(C)cn2c1C(=O)NCc1ccc(-c2nc3n(n2)CCN(C(=O)C(F)(F)F)C3)cc1 [Compound 43] | 0.282 µM | – |
| CCc1nc2nc3c(cn2c1C(=O)NCc1ccc(-c2nc4n(n2)CCN(S(=O)(=O)C(F)(F)F)C4)cc1)CCC3 [Compound 45] | 0.0151 µM | – |
| CCc1nc2ccc(C)cn2c1C(=O)NCc1ccc(-c2nc3n(n2)CCN(C(C)=O)C3)cc1 [Compound 46] | 0.282 µM | – |
| CCc1nc2ccc(C)cn2c1C(=O)NCc1ccc(-c2nc3n(n2)CCN(S(=O)(=O)N2CCCC2)C3)cc1 [Compound 48] | 0.0257 µM | – |
| CCc1nc2ncc(C)cn2c1C(=O)NCc1ccc(-c2nc3n(n2)CCN(C)C3)cc1 [Compound 50] | 0.17 µM | – |
| CCc1nc2ccc(C)cn2c1C(=O)NCc1ccc(-c2nc3n(n2)CCN(S(=O)(=O)N(C)C)C3)cc1 [Compound 51] | 0.0417 µM | – |
| CCc1nc2ccc(C)cn2c1C(=O)NCc1ccc(-c2nc3n(n2)CCNC3)cc1 [Compound 52] | 0.209 µM | – |
| CCc1nc2ccc(C)cn2c1C(=O)NCc1ccc(-c2nc3n(n2)CCN(C(=O)C(F)(F)F)C3)cc1 [Compound 53] | 0.12 µM | – |
| CCc1nc2ncc(C)cn2c1C(=O)NCc1ccc(-c2nc3n(n2)CCN(CCOC)C3)cc1 [Compound 54] | 0.132 µM | – |
| CCc1nc2ccc(C)cn2c1C(=O)NCc1ccc(-c2nc3n(n2)CCN(CCOC)C3)cc1 [Compound 55] | 0.0501 µM | – |
| CCc1nc2ccc(C)cn2c1C(=O)NCc1ccc(-c2nc3n(n2)CCN(C)C3)cc1 [Compound 56] | 0.0741 µM | – |
| CCc1nc2ncc(C)cn2c1C(=O)NCc1ccc(-c2nc3n(n2)CCN(S(=O)(=O)C(F)(F)F)C3)s1 [Compound 57] | 0.0263 µM | – |

| Compound | IC50 | pIC50 |
| --- | --- | --- |
| CCc1nc2ncc(C)cn2c1C(=O)NCc1ccc(C2CN(c3nc4n(n3)CCN(S(=O)(=O)C(F)(F)F)C4)C2)cc1 [Compound 58] | 0.123 µM | – |
| CCc1nc2ncc(C)cn2c1C(=O)NCc1ccc(C2CCN(c3nc4n(n3)CCN(S(=O)(=O)C(F)(F)F)C4)CC2)cc1 [Compound 59] | 0.11 µM | – |
| CCc1nc2ncc(C)cn2c1C(=O)NCc1ccc(N2CCC(c3nc4n(n3)CCN(S(=O)(=O)C(F)(F)F)C4)CC2)cc1 [Compound 60] | 0.0933 µM | – |
| CCc1nc2ncc(C)cn2c1C(=O)NCc1ccc(-c2nc3n(n2)CCN(CCC#N)C3)cc1 [Compound 61] | 0.389 µM | – |
| CCc1nc2ccc(C)cn2c1C(=O)NCc1ccc(-c2nc3n(n2)CCN(CCC#N)C3)cc1 [Compound 62] | 0.174 µM | – |
| CCc1nc2n(c1C(=O)NCc1ccc(-c3nc4n(n3)CCN(S(=O)(=O)C(F)(F)F)C4)cc1)CCOC2 [Compound 63] | 0.191 µM | – |
| CCc1nc2ncc(C)cn2c1C(=O)NCc1ncc(-c2nc3n(n2)CCN(S(=O)(=O)C(F)(F)F)C3)s1 [Compound 64] | 0.132 µM | – |
| CCc1nc2n(c1C(=O)NCc1ccc(-c3nc4n(n3)CCN(S(=O)(=O)C(F)(F)F)C4)cc1)CCN(C)C2 [Compound 65] | 0.331 µM | – |
| CCc1nc2ncc(C)cn2c1C(=O)NCc1cccc(-c2nc3n(n2)CCN(S(=O)(=O)C(F)(F)F)C3)c1 [Compound 67] | 0.162 µM | – |
| CCc1nc2ncc(C)cn2c1C(=O)NC1(c2ccc(-c3nc4n(n3)CCN(S(=O)(=O)C(F)(F)F)C4)cc2)CC1 [Compound 68] | – | <6.3* |
| CCc1nc2ncc(C)cn2c1C(=O)NCc1ccc(C2CCN(c3nc4n(n3)CCN(S(=O)(=O)C(F)(F)F)C4)C2)cc1 (stereo not shown) [Compound 69] | 0.0151 µM | – |
| CCc1nc2ncc(C)cn2c1C(=O)NCc1ccc(N2CCN(c3nc4n(n3)CCN(S(=O)(=O)C(F)(F)F)C4)CC2)cc1 [Compound 70] | 0.0912 µM | – |
| CCc1nc2ncc(C)cn2c1C(=O)NCc1cccc(Cc2nc3n(n2)CCN(S(=O)(=O)C(F)(F)F)C3)c1 [Compound 71] | – | <6.3* |
| CCc1nc2ncc(C)cn2c1C(=O)NCc1coc(-c2nc3n(n2)CCN(S(=O)(=O)C(F)(F)F)C3)n1 [Compound 72] | – | <6.3 |
| CCc1nc2ncc(C)cn2c1C(=O)NCc1csc(-c2nc3n(n2)CCN(S(=O)(=O)C(F)(F)F)C3)n1 [Compound 73] | > 0.501 µM | – |
| CCc1nc2ncc(C)cn2c1C(=O)NCc1cnc(-c2nc3n(n2)CCN(S(=O)(=O)C(F)(F)F)C3)s1 [Compound 74] | 0.309 µM | – |
| CCc1nc2ncc(C)cn2c1C(=O)NCc1nc(-c2nc3n(n2)CCN(S(=O)(=O)C(F)(F)F)C3)cs1 [Compound 75] | > 0.501 µM | – |
| CCc1nc2ncc(C)cn2c1C(=O)NCc1nnc(-c2nc3n(n2)CCN(S(=O)(=O)C(F)(F)F)C3)s1 [Compound 76] | > 0.501 µM | – |
| CCc1nc2ncc(Cl)cn2c1C(=O)NCc1cnc(-c2nc3n(n2)CCN(S(=O)(=O)C(F)(F)F)C3)c(F)c1 [Compound 77] | 0.457 µM | – |
| CCc1nc2cc(N)c(Cl)cn2c1C(=O)NCc1cnc(-c2nc3n(n2)CCN(S(=O)(=O)C(F)(F)F)C3)c(F)c1 [Compound 78] | > 0.501 µM | – |
